Values after ≈ are worked out from the molar mass of the structure shown. Structures can show the parent of a compound that is named as a salt. Where two headings read alike, the source gives them in different places.
Legend:
[1] = cited from earlier work
[2] = Release of THCL and KTF from oleic acid loaded lenses in PBS at different pH; conditions: release medium pH from 7.4 to 5.5
[3] = cited from earlier work; remark: listed apart in the source

Structure (SMILES) | Solubility in water [1] [µM] | release kinetics of KTF as pH decreases [2] | solubility in PBS ([3]; pH 7) [mg/mL] | solubility in PBS ([3]; pH 10) [mg/mL]
CCCCCCCCCCCCCC(=O)O [Myristic acid] | 1 (≈ 0.228 µg/mL) |  |  | 
CN1CCC(=C2c3ccccc3CC(=O)c3sccc32)CC1 [KTF, ketotifen fumarate] |  | accelerated | 10.5 | 0.02

— patent US11504323B2, “Boundary surface charged contact lens for delivery” (Lynthera Corporation, priority 2020, dated 2022)
